One molecule from article PMC5391474, “Investigation of the Role of Protein Kinase D in Human Rhinovirus Replication” (Journal of Virology, 2017) can be followed below.

One assay concerns the target T1, LKB1(h) (Homo sapiens, UniProt Q15831).
T1 construct: gene STK11
The assay can be described thus: biochemical. To be noted: ATP at Km. Further details: in vitro kinase selectivity panel, protein and lipid kinases, single concentration, ATP at Km. A digest of the protocol:
(§1)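 Single-point screen against a protein and lipid kinase panel: inhibitor at 1 μM. ATP concentration for every kinase equivalent to its Km.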

In a further assay the target is T2, MAPK2(h) (Homo sapiens, UniProt P28482).
T2 construct: gene MAPK1
T2 sequence (P28482 whole entry): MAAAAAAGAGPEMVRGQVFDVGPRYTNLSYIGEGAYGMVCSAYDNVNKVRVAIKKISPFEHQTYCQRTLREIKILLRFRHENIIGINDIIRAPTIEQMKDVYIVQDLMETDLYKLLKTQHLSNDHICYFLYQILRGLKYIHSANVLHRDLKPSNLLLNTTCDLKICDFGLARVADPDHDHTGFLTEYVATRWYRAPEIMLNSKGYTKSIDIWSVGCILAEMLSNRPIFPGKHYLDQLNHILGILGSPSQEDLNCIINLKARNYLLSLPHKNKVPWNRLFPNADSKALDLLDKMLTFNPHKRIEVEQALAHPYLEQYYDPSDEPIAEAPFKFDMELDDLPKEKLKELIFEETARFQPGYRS
The assay can be described thus: biochemical. Further details: in vitro kinase selectivity panel, protein and lipid kinases, single concentration, ATP at Km. Conditions: ATP at Km. A digest of the protocol:
as §1

What is called inhibition is the relative decrease from the control value, in per cent.

T1 sequence (Q15831 whole entry): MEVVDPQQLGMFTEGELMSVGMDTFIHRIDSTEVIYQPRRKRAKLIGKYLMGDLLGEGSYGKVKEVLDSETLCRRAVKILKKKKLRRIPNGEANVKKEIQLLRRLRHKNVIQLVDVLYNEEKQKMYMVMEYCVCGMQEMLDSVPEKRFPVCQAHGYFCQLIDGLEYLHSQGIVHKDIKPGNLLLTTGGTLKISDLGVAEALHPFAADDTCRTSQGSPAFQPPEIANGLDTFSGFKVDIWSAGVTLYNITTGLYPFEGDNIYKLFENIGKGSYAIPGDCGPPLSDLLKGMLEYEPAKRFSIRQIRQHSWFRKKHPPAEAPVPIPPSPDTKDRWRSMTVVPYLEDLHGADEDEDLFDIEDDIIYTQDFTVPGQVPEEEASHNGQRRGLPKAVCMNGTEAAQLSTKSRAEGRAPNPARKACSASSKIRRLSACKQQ
T1 sequence (Q7RTN6 whole entry partner): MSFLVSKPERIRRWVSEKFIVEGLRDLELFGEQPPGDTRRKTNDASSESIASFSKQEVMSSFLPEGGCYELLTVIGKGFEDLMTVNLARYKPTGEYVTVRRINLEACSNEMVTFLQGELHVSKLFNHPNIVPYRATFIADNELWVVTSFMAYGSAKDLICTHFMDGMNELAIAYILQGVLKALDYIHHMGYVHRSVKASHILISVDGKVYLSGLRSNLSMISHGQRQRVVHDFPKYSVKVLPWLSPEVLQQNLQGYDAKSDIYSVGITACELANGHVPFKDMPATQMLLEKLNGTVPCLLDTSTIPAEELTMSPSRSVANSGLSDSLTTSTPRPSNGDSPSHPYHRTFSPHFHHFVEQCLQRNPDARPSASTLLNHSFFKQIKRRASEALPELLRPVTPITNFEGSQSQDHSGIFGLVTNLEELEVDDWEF
T1 sequence (Q9Y376 whole entry partner): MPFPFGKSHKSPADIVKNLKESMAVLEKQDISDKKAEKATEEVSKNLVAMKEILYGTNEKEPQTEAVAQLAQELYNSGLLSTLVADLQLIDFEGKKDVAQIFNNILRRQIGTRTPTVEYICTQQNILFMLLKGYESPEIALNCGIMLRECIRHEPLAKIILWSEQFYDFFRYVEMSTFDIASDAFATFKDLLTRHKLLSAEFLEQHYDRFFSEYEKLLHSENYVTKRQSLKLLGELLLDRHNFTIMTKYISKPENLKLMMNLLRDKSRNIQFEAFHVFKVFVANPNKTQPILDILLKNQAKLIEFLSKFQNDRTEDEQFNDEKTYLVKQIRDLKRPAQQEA

With `CC[C@@H](N)CNc1ccnc(-c2cc(-c3cnn(C)c3)ccc2O)n1` [CRT0066101], the inhibition at 1 µM against LKB1(h) was -13%; against MAPK2(h), -9%.
